Values of other authors, collected in patent US20230190793A1, “Pharmaceutical Preparation for Use in the Treatment of Systemic Inflammatory Response Syndrome (SIRS)” (priority 2020, published 2023).

Row | Compound | Acid dissociation constant as pKa at 298 K
1 | OCl [hypochlorous acid] | 7.25
2 | [O-][Cl+2]([O-])O [chloric acid] | 0
3 | peroxochloric acid | approx. 6.2
